Structures are written as SMILES. Some results are limits rather than exact numbers.

The target of the assay is T1, CFTR in F508del/MF-HBE cells (Homo sapiens, UniProt P13569, DEL508-508).
T1 construct: human bronchial epithelial (HBE) cells derived from CF subjects heterozygous for F508del and a minimal function CFTR mutation; endogenous in cells; host or cells: primary human bronchial epithelial cells from CF subjects (F508del/MF-HBE)
T1 sequence (P13569 with tags, fused parts or gaps DEL508-508): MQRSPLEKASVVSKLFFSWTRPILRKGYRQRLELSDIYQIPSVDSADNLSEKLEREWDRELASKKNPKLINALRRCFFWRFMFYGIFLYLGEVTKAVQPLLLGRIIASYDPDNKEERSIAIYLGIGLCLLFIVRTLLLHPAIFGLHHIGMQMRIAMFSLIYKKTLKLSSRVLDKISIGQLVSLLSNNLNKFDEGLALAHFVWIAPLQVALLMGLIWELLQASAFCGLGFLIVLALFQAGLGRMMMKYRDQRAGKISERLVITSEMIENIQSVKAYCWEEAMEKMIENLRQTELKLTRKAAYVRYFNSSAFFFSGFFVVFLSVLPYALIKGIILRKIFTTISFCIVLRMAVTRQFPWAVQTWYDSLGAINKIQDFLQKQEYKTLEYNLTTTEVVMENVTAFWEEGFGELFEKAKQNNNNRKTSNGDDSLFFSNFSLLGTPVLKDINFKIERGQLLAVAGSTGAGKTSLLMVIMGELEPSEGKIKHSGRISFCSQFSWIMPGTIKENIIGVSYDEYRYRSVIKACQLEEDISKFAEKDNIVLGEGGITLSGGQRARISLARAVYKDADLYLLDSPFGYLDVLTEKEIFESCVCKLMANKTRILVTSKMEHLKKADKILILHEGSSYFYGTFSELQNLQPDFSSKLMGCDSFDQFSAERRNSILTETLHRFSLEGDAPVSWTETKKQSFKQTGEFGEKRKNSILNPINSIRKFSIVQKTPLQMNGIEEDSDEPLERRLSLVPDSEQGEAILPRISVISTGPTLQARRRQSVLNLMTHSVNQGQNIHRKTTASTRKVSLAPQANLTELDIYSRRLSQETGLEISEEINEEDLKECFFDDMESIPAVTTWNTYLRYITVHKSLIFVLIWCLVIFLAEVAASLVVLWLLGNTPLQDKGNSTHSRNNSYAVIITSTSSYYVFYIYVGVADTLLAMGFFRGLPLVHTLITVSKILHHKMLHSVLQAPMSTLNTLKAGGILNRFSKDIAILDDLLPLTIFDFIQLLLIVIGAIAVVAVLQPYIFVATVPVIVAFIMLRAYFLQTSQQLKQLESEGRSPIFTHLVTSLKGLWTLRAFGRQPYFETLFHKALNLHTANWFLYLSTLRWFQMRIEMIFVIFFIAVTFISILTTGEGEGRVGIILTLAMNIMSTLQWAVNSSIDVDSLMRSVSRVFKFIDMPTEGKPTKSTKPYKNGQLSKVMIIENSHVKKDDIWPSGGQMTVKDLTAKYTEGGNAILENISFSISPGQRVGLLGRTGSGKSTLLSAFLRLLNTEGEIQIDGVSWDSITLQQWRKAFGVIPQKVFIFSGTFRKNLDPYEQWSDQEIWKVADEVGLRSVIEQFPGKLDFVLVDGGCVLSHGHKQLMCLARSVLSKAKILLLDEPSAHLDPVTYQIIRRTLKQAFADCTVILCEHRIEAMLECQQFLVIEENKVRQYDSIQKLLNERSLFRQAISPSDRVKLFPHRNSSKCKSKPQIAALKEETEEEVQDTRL
Nature of the assay: Ussing chamber assay of CFTR-mediated short-circuit currents (identification of potentiator compounds). The note with it: potentiator incubated 18-24 hours at 37° C. in combination with 10 μM corrector, in the presence of 20% human serum, CFTR-mediated ISC. The class given is cell-based. The procedure, abridged: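 F508del/MF-HBE cultures were preincubated 18-24 h at 37° C with potentiator plus 10 μM of a fixed corrector compound in 20% human serum; compounds were kept present during measurement. ISC was recorded under voltage clamp (0 mV, 37° C, amiloride apical) and taken as the 20 μM forskolin peak minus the current after inhibitor cocktail.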
What is called EC50 is the concentration needed to bring the measured effect to its halfway point. Take `Nc1cc(C(F)(F)F)c2nc1-c1nnc(o1)[C@@](O)(C(F)(F)F)CCCCCN(Cc1cccc(Cl)c1)C2=O` [Compound 149, (6R)-17-amino-12-[(3-chlorophenyl)methyl]-6-hydroxy-6,15-bis (trifluoromethyl)-19-oxa-3,4,12,18-tetrazatricyclo [12.3.1.12,5] nonadeca-1(18),2,4,14,1 6-pentaen-13-one]: the EC50 was < 500 nM.

Take `CC1(C)Cc2cc(CN3CCCCC[C@](O)(C(F)(F)F)C4=NN=C(O4)c4nc(c(C(F)(F)F)cc4N)C3=O)ccc2O1` [Compound 150, (6R)-17-amino-12-[(2,2-dimethyl-3H-benzofuran-5-yl)methyl]-6-hydroxy-6,15-bis (trifluoromethyl)-19-oxa-3,4,12,18-tetrazatricyclo [12.3.1.12,5] nonadeca-1(18),2,4,14,1 6-pentaen-13-one]: the concentration giving a half-maximal response (EC50) is < 500 nM.

In the case of `Nc1cc(C(F)(F)F)c2nc1-c1nnc(o1)[C@@](O)(C(F)(F)F)CCCCCN(Cc1ccc(C3(C(F)(F)F)CC3)cc1)C2=O` [Compound 151], the 50% effective concentration (EC50) is < 500 nM.

As to `Nc1cc(C(F)(F)F)c2nc1-c1nnc(o1)[C@@](O)(C(F)(F)F)CCCCCN([C@H]1C[C@@H](c3ccccc3)C1)C2=O` [Compound 152, (6R)-17-amino-6-hydroxy-12-(3-phenylcyclobutyl)-6,15-bis (trifluoromethyl)-19-oxa-3,4,12,18-tetrazatricyclo [12.3.1.12,5] nonadeca-1(18),2,4,14,1 6-pentaen-13-one], the concentration for a half-maximal effect (EC50) is < 500 nM.

`Nc1cc(C(F)(F)F)c2nc1-c1nnc(o1)[C@@](O)(C(F)(F)F)CCCCCN(Cc1ccc(OC(F)(F)F)c(Cl)c1)C2=O` [Compound 153, (6R)-17-amino-12-[[3-chloro-4-(trifluoromethoxy)phenyl]methyl]-6-hydroxy-6,15-bis(trifluoromethyl)-19-oxa-3,4,12,18-tetrazatricyclo [12.3.1.12,5] nonadeca-1(18),2,4,14,1 6-pentaen-13-one]: the concentration giving a half-maximal response (EC50) was < 500 nM.

Consider `C[C@@H](c1ccc(OC(F)(F)F)cc1)N1CCCCC[C@](O)(C(F)(F)F)C2=NN=C(O2)c2nc(c(C(F)(F)F)cc2N)C1=O` [Compound 154, (6R)-17-amino-6-hydroxy-12-[(1S)-1-[4-(trifluoromethoxy)phenyl]ethyl]-6,15-bis (trifluoromethyl)-19-oxa-3,4,12,18-tetrazatricyclo [12.3.1.12,5] nonadeca-1(18),2,4,14,1 6-pentaen-13-one], for which the EC50 is < 500 nM.

Consider `COc1ccccc1CN1CCCCC[C@](O)(C(F)(F)F)C2=NN=C(O2)c2nc(c(C(F)(F)F)cc2N)C1=O` [Compound 155, (6R)-17-amino-6-hydroxy-12-[(2-methoxyphenyl)methyl]-6,15-bis (trifluoromethyl)-19-oxa-3,4,12,18-tetrazatricyclo [12.3.1.12,5] nonadeca-1(18),2,4,14,1 6-pentaen-13-one], for which the EC50 is < 500 nM.

For `Nc1cc(C(F)(F)F)c2nc1-c1nnc(o1)[C@@](O)(C(F)(F)F)CCCCCN(Cc1ccccc1C(F)(F)F)C2=O` [Compound 156, (6R)-17-amino-6-hydroxy-6,15-bis (trifluoromethyl)-12-[[2-(trifluoromethyl)phenyl]methyl]-19-oxa-3,4,12,18-tetrazatricyclo [12.3.1.12,5] nonadeca-1(18),2,4,14,1 6-pentaen-13-one], the half-maximal effective concentration (EC50) is < 500 nM.

With `Cc1cc(OC(F)(F)F)ccc1CN1CCCCC[C@](O)(C(F)(F)F)C2=NN=C(O2)c2nc(c(C(F)(F)F)cc2N)C1=O` [Compound 157, (6R)-17-amino-6-hydroxy-12-[[2-methyl-4-(trifluoromethoxy)phenyl]methyl]-6,15-bis (trifluoromethyl)-19-oxa-3,4,12,18-tetrazatricyclo [12.3.1.12,5] nonadeca-1(18),2,4,14,1 6-pentaen-13-one], the EC50 was < 500 nM.

Regarding `COc1cc(OC(F)(F)F)ccc1CN1CCCCC[C@](O)(C(F)(F)F)C2=NN=C(O2)c2nc(c(C(F)(F)F)cc2N)C1=O` [Compound 158, (6R)-17-amino-6-hydroxy-12-[[2-methoxy-4-(trifluoromethoxy)phenyl]methyl]-6,15-bis(trifluoromethyl)-19-oxa-3,4,12,18-tetrazatricyclo [12.3.1.12,5] nonadeca-1(18),2,4,14,1 6-pentaen-13-one], the EC50 was < 500 nM.

For `Nc1cc(C(F)(F)F)c2nc1-c1nnc(o1)[C@@](O)(C(F)(F)F)CCCCCN(Cc1ccc(OC(F)(F)F)cc1F)C2=O` [Compound 159, (6R)-17-amino-12-[[2-fluoro-4-(trifluoromethoxy)phenyl]methyl]-6-hydroxy-6,15-bis (trifluoromethyl)-19-oxa-3,4,12,18-tetrazatricyclo [12.3.1.12,5] nonadeca-1(18),2,4,14,1 6-pentaen-13-one], the EC50 was < 500 nM.

In the case of `COc1ccc(CN2CCCCC[C@](O)(C(F)(F)F)C3=NN=C(O3)c3nc(c(C(F)(F)F)cc3N)C2=O)cc1F` [Compound 160, (6R)-17-amino-12-[(3-fluoro-4-methoxy-phenyl)methyl]-6-hydroxy-6,15-bis (trifluoromethyl)-19-oxa-3,4,12,18-tetrazatricyclo [12.3.1.12,5] nonadeca-1(18),2,4,14,1 6-pentaen-13-one], the EC50 is < 500 nM.

For `Nc1cc(C(F)(F)F)c2nc1-c1nnc(o1)[C@@](O)(C(F)(F)F)CCCCCN(Cc1ccc(OC(F)(F)C(F)F)cc1)C2=O` [Compound 161, (6R)-17-amino-6-hydroxy-12-[[4-(1,1,2,2-tetrafluoroethoxy)phenyl]methyl]-6,15-bis (trifluoromethyl)-19-oxa-3,4,12,18-tetrazatricyclo [12.3.1.12,5] nonadeca-1(18),2,4,14,1 6-pentaen-13-one], the 50% effective concentration (EC50) was < 500 nM.

Turning to `CCCc1ccc(CN2CCCCC[C@](O)(C(F)(F)F)C3=NN=C(O3)c3nc(c(C(F)(F)F)cc3N)C2=O)cc1` [Compound 162, (6R)-17-amino-6-hydroxy-12-[(4-propylphenyl)methyl]-6,15-bis (trifluoromethyl)-19-oxa-3,4,12,18-tetrazatricyclo [12.3.1.12,5] nonadeca-1(18),2,4,14,1 6-pentaen-13-one], the EC50 is < 500 nM.

As to `COc1cc(CN2CCCCC[C@](O)(C(F)(F)F)C3=NN=C(O3)c3nc(c(C(F)(F)F)cc3N)C2=O)ccc1F` [Compound 163, (6R)-17-amino-12-[(4-fluoro-3-methoxy-phenyl)methyl]-6-hydroxy-6,15-bis (trifluoromethyl)-19-oxa-3,4,12,18-tetrazatricyclo [12.3.1.12,5] nonadeca-1(18),2,4,14,1 6-pentaen-13-one], the EC50 is < 500 nM.

Take `COc1cc(F)ccc1CN1CCCCC[C@](O)(C(F)(F)F)C2=NN=C(O2)c2nc(c(C(F)(F)F)cc2N)C1=O` [Compound 164, (6R)-17-amino-12-[(4-fluoro-2-methoxy-phenyl)methyl]-6-hydroxy-6,15-bis (trifluoromethyl)-19-oxa-3,4,12,18-tetrazatricyclo [12.3.1.12,5] nonadeca-1(18),2,4,14,1 6-pentaen-13-one]: the concentration for a half-maximal effect (EC50) was < 500 nM.

In the case of `Cc1cc(CN2CCCCC[C@](O)(C(F)(F)F)C3=NN=C(O3)c3nc(c(C(F)(F)F)cc3N)C2=O)ccc1OC(F)(F)F` [Compound 165], the EC50 was < 500 nM.

As for `Nc1cc(C(F)(F)F)c2nc1-c1nnc(o1)[C@@](O)(C(F)(F)F)CCCCCN(Cc1cccc(-c3ccccc3)c1)C2=O` [Compound 166, (6R)-17-amino-6-hydroxy-12-[(3-phenylphenyl)methyl]-6,15-bis (trifluoromethyl)-19-oxa-3,4,12,18-tetrazatricyclo [12.3.1.12,5] nonadeca-1(18),2,4,14,1 6-pentaen-13-one], the EC50 is < 500 nM.

In the case of `Cc1cnc(CN2CCCCC[C@](O)(C(F)(F)F)C3=NN=C(O3)c3nc(c(C(F)(F)F)cc3N)C2=O)cn1` [Compound 167, (6R)-- 17-amino-6-hydroxy-12-[(5-methylpyrazin-2-yl)methyl]-6,15-bis (trifluoromethyl)-19-oxa-3,4,12,18-tetrazatricyclo [12.3.1.12,5] nonadeca-1(18),2,4,14,1 6-pentaen-13-one], the EC50 was > 1000 nM.

For the compound `CCCc1ccccc1CN1CCCCC[C@](O)(C(F)(F)F)C2=NN=C(O2)c2nc(c(C(F)(F)F)cc2N)C1=O` [Compound 168, (6R)-17-amino-6-hydroxy-12-[(2-propylphenyl)methyl]-6,15-bis (trifluoromethyl)-19-oxa-3,4,12,18-tetrazatricyclo [12.3.1.12,5] nonadeca-1(18),2,4,14,1 6-pentaen-13-one], the EC50 is < 500 nM.

Consider `Cc1cnc(CN2CCCCC[C@](O)(C(F)(F)F)C3=NN=C(O3)c3nc(c(C(F)(F)F)cc3N)C2=O)nc1` [Compound 169, (6R)-17-amino-6-hydroxy-12-[(5-methylpyrimidin-2-yl)methyl]-6,15-bis (trifluoromethyl)-19-oxa-3,4,12,18-tetrazatricyclo [12.3.1.12,5] nonadeca-1(18),2,4,14,1 6-pentaen-13-one], for which the concentration for a half-maximal effect (EC50) is > 1000 nM.

Turning to `CC(C)(C)Cc1ccc(CN2CCCCC[C@](O)(C(F)(F)F)C3=NN=C(O3)c3nc(c(C(F)(F)F)cc3N)C2=O)cc1` [Compound 170, (6R)-17-amino-12-[[4-(2,2-dimethylpropyl)phenyl]methyl]-6-hydroxy-6,15-bis (trifluoromethyl)-19-oxa-3,4,12,18-tetrazatricyclo [12.3.1.12,5] nonadeca-1(18),2,4,14,1 6-pentaen-13-one], the EC50 was < 500 nM.

As for `CC(C)(C)c1ncc(CN2CCCCC[C@](O)(C(F)(F)F)C3=NN=C(O3)c3nc(c(C(F)(F)F)cc3N)C2=O)cn1` [Compound 171, (6R)-17-amino-12-[(2-tert-butylpyrimidin-5-yl)methyl]-6-hydroxy-6,15-bis (trifluoromethyl)-19-oxa-3,4,12,18-tetrazatricyclo [12.3.1.12,5] nonadeca-1(18),2,4,14,1 6-pentaen-13-one], the EC50 was < 500 nM.

The values above are taken from patent publication US20250122218A1, “MODULATORS OF CYSTIC FIBROSIS TRANSMEMBRANE CONDUCTANCE REGULATOR” (Vertex Pharmaceuticals Incorporated, priority 2022, published 2025).
